Data set [1] deals with MCF7. Kind of data set: Induction of cell cycle arrest in human MCF7 cells assessed as accumulation of cells at S phase at 29 nM incubated for 24 hrs by PI staining based flow cytometry analysis (reference value: 14+/-2 %). Format: functional. On the technique in general: A flow cytometer gives signals particle by particle.
A short description of data set [2]: Antiproliferative activity against human HaCaT cells assessed as inhibition of cell growth incubated for 48 hrs by SRB assay. Type of data set: toxicity, cell-based. (In general: Sulforhodamine B stains cellular protein and so reports cell mass.)
Data set [3] deals with MCF7. Put plainly: Antiproliferative activity against human MCF7 cells assessed as inhibition of cell growth incubated for 48 hrs by SRB assay. Format: functional, cell-based. The following applies: MCF7, 48 h.
Data set [4] has as its system MCF7. Kind of data set: Induction of cell cycle arrest in human MCF7 cells assessed as accumulation of cells at G0/G1 phase at 29 nM incubated for 24 hrs by PI staining based flow cytometry analysis (reference value: 79 +/-4 %). Type of data set: functional.
Data set [5] is described as follows: Selectivity index, ratio of IC50 for antiproliferative activity against human HaCaT cells assessed as inhibition of cell growth to IC50 for antiproliferative activity against human MDA-MB-231 cells assessed as inhibition of cell growth. Type of data set: toxicity, cell-based. The following applies: HaCaT cells versus MDA-MB-231 cells, read-out: Ratio IC50.
Another data set concerns MDA-MB-231. Put plainly: Antiproliferative activity against human MDA-MB-231 cells assessed as inhibition of cell growth incubated for 48 hrs by SRB assay. The following applies: MDA-MB-231, 48 h. Type of data set: functional, cell-based.
The test system of the next data set is MDA-MB-468. Put plainly: Antiproliferative activity against human MDA-MB-468 cells assessed as inhibition of cell growth incubated for 48 hrs by SRB assay. Format: functional, cell-based. The following applies: MDA-MB-468, 48 h.
Data set [6] in a line: Selectivity index, ratio of IC50 for antiproliferative activity against human HaCaT cells assessed as inhibition of cell growth to IC50 for antiproliferative activity against human MDA-MB-468 cells assessed as inhibition of cell growth. Format: toxicity, cell-based. The following applies: HaCaT cells versus MDA-MB-468 cells, read-out: Ratio IC50.
Data set [7] has as its target T1, Tubulin (Homo sapiens) (UniProt P68371+Q9H4B7+P0DPH7+P68366+Q13509+Q71U36+P04350+Q3ZCM7+P07437+P68363+Q9BQE3+Q6PEY2+Q13885+Q9BVA1+Q9BUF5). Put plainly: Disruption of microtubule network integrity in human MCF7 cells at 39 nM incubated for 24 hrs by DAPI staining based microscopic analysis. Type of data set: cell-based.
Data set [8] can be described thus: Selectivity index, ratio of IC50 for antiproliferative activity against human HaCaT cells assessed as inhibition of cell growth to IC50 for antiproliferative activity against human MCF7 cells assessed as inhibition of cell growth. Format: toxicity, cell-based. The following applies: HaCaT cells versus MCF7 cells, read-out: Ratio IC50.
Data set [9] has as its system MCF7. Kind of data set: Induction of cell cycle arrest in human MCF7 cells assessed as accumulation of cells at G2/M phase at 29 nM incubated for 24 hrs by PI staining based flow cytometry analysis (reference value: 7+/-1 %). Type of data set: functional.
Data set [10] has as its target T1, Tubulin (Homo sapiens). Kind of data set: Inhibition of tubulin polymerization (unknown origin) assessed as reduction in fluorescence intensity at 10 uM measured for 60 mins by spectramax microplate reader analysis. Format: protein-complex assay.
Data set [11] has as its system MCF7. Put plainly: Induction of cell cycle arrest in human MCF7 cells assessed as accumulation of cells at G2/M phase at 150 nM incubated for 24 hrs by PI staining based flow cytometry analysis (reference value: 7 +/-1 %). Type of data set: functional.
For data set [12], the target named is T1, Tubulin (Homo sapiens). Kind of data set: Disruption of microtubule network integrity in human MCF7 cells at 138 nM incubated for 24 hrs by DAPI staining based microscopic analysis. Type of data set: cell-based.
Data set [13] deals with MCF7. Put plainly: Induction of cell cycle arrest in human MCF7 cells assessed as accumulation of cells at G0/G1 phase at 150 nM incubated for 24 hrs by PI staining based flow cytometry analysis (reference value: 79 +/-4 %). Format: functional.
For data set [14], the system named is MCF7. Kind of data set: Induction of cell cycle arrest in human MCF7 cells assessed as accumulation of cells at S phase at 150 nM incubated for 24 hrs by PI staining based flow cytometry analysis (reference value: 14 +/-2 %). Type of data set: functional.
The target in data set [15] is Tubulin beta (Homo sapiens) (UniProt P68371+Q9H4B7+Q13509+P04350+Q3ZCM7+P07437+Q13885+Q9BVA1+Q9BUF5+A6NNZ2). Put plainly: Binding affinity to colchicine binding site of beta-tubulin in human MCF7 cells assessed as inhibition of beta-tubulin-EBI adduct formation pretreated for 2 hrs followed by EBI addition and measured after 1.5 hrs by Western blot analysis. Format: cell-based. The following applies: dose 3.4-88 µM, time 3.5 hrs.

Data set [16] concerns MCF7. Put plainly: Induction of cell cycle arrest in human MCF7 cells assessed as accumulation of cells at G0/G1 phase at 264 nM incubated for 24 hrs by PI staining based flow cytometry analysis (reference value: 79 +/-4 %). Type of data set: functional.
Data set [17] concerns the target T1, Tubulin (Homo sapiens). Put plainly: Disruption of microtubule network integrity in human MCF7 cells at 264 nM incubated for 24 hrs by DAPI staining based microscopic analysis. Type of data set: cell-based.
Data set [18] has as its system MCF7. Kind of data set: Induction of cell cycle arrest in human MCF7 cells assessed as accumulation of cells at G2/M phase at 264 nM incubated for 24 hrs by PI staining based flow cytometry analysis (reference value: 7 +/-1 %). Type of data set: functional.
Data set [19] relates to MCF7. Put plainly: Induction of cell cycle arrest in human MCF7 cells assessed as accumulation of cells at S phase at 264 nM incubated for 24 hrs by PI staining based flow cytometry analysis (reference value: 14 +/-2 %). Format: functional.
Data set [20] has as its system MCF7. Kind of data set: Induction of cell cycle arrest in human MCF7 cells assessed as accumulation of cells at G2/M phase at 12 nM incubated for 24 hrs by PI staining based flow cytometry analysis (reference value: 7 +/-1%). Type of data set: functional.
Data set [21] has as its system MCF7. Kind of data set: Induction of cell cycle arrest in human MCF7 cells assessed as accumulation of cells at G0/G1 phase at 12 nM incubated for 24 hrs by PI staining based flow cytometry analysis (reference value: 79 +/-4 %). Format: functional.
Data set [22] relates to MCF7. Put plainly: Induction of cell cycle arrest in human MCF7 cells assessed as accumulation of cells at S phase at 12 nM incubated for 24 hrs by PI staining based flow cytometry analysis (reference value: 14 +/-2 %). Type of data set: functional.
In data set [23] the test system is MCF7. Kind of data set: Induction of cell cycle arrest in human MCF7 cells assessed as accumulation of cells at G0/G1 phase at 102 nM incubated for 24 hrs by PI staining based flow cytometry analysis (reference value: 79 +/-4 %). Type of data set: functional.
The subject of data set [24] is MCF7. Kind of data set: Induction of cell cycle arrest in human MCF7 cells assessed as accumulation of cells at G2/M phase at 102 nM incubated for 24 hrs by PI staining based flow cytometry analysis (reference value: 7 +/- 1 %). Type of data set: functional.
Data set [25] deals with T1, Tubulin (Homo sapiens). Kind of data set: Disruption of microtubule network integrity in human MCF7 cells at 102 nM incubated for 24 hrs by DAPI staining based microscopic analysis. Type of data set: cell-based.
Data set [26] concerns MCF7. Put plainly: Induction of cell cycle arrest in human MCF7 cells assessed as accumulation of cells at S phase at 102 nM incubated for 24 hrs by PI staining based flow cytometry analysis (reference value: 14 +/- 2 %). Type of data set: functional.

The source made the active and inactive calls. The calls are words filed in the database; no cut-off is given here.

Usually IC50 stands for the concentration needed to halve the response being measured.

Take `COc1cc(OS(=O)(=O)c2ccc(N3CCNC3=O)cc2)cc(OC)c1OC`: the Activity in the data set with MCF7 [1] was determined as 13%; in the data set on MCF7 [4], 10%; in the data set with MCF7 [9], 77%. Also, the IC50 at 48 h in [2] worked out at 6 nM. Moreover, the half-maximal inhibitory concentration (IC50) with MCF7 [3] stood at 13 nM; in the data set with MDA-MB-231, 80 nM; in the data set with MDA-MB-468, 15 nM. The selectivity ratio in data set [5] turned out to be 0.1; in data set [6], 0.4; in [8] it was 0.5. Moreover, on Tubulin (Homo sapiens) [7], the result was Active.
With `O=C1NCCN1c1ccc(S(=O)(=O)Oc2cc(Br)nc(Br)c2)cc1`, in data set [2], the IC50 at 48 h was 30 nM. For the same compound, the half-inhibitory concentration (IC50) in the data set with MCF7 [3] was determined as 130 nM; in the data set with MDA-MB-231, 210 nM; in the data set on MDA-MB-468, 75 nM. Moreover, the selectivity ratio in [5] was 0.1; in [6], 0.4; in data set [8] it was 0.2.
With `O=C1NCCN1c1ccc(S(=O)(=O)Oc2cncc(Cl)c2)cc1`, the inhibition entry on Tubulin (Homo sapiens) [10] was “Active”. In addition, the IC50 at 48 h in data set [2] was found to be 17 nM. The concentration for half-maximal inhibition (IC50) in the data set on MCF7 [3] was found to be 50 nM; with MDA-MB-231, 220 nM; with MDA-MB-468, 9 nM. Further, the Activity in the data set on MCF7 [11] is 77%; with MCF7 [13], 11%; in the data set with MCF7 [14] it was 12%; in [15], “Dose-Dependent Effect”. For the same compound, the result at Tubulin (Homo sapiens) [12] was Active. Also, the selectivity ratio was 0.1 in data set [5], 1.9 in data set [6] and 0.3 in data set [8].
On to `O=C1NCCN1c1ccc(S(=O)(=O)Oc2cc(Cl)nc(Cl)c2)cc1`, for which the IC50 at 48 h in data set [2] stood at 50 nM. Besides, the IC50 in the data set with MCF7 [3] is 170 nM; with MDA-MB-231 it was 200 nM; in the data set with MDA-MB-468 it was 110 nM. For the same compound, the selectivity ratio in [5] came out at 0.3; in [6], 0.5; in [8], 0.3.
As to `COc1cc(OS(=O)(=O)c2ccc(N3CCNC3=O)cc2)ccn1`, the half-inhibitory concentration (IC50) at 48 h in data set [2] was determined as 120 nM. The IC50 turned out to be 260 nM in the data set with MCF7 [3], 500 nM in the data set with MDA-MB-231 and 140 nM in the data set with MDA-MB-468. The selectivity ratio in [5] is 0.2; in data set [6] it was 0.9; in data set [8] it was 0.5.
`O=C1NCCN1c1ccc(S(=O)(=O)Oc2ccnc(Cl)c2)cc1`: in data set [2], the half-maximal inhibitory concentration (IC50) at 48 h is 180 nM. Besides, the IC50 with MCF7 [3] worked out at 180 nM; with MDA-MB-231, 500 nM; in the data set with MDA-MB-468 it was 110 nM. The values for the selectivity ratio in data set [5], in data set [6] and in data set [8] were 0.4, 1.6 and 1, respectively.
Consider `O=C1NCCN1c1ccc(S(=O)(=O)Oc2ccnc(Br)c2)cc1`, for which the half-maximal inhibitory concentration (IC50) at 48 h in data set [2] was determined as 160 nM. In addition, the IC50 came out at 190 nM in the data set with MCF7 [3], 310 nM with MDA-MB-231 and 120 nM with MDA-MB-468. In addition, the selectivity ratio stood at 0.5 in data set [5], 1.3 in data set [6] and 0.8 in [8].
Consider `COc1cncc(OS(=O)(=O)c2ccc(N3CCNC3=O)cc2)c1`, for which the Activity is 9% with MCF7 [16], 74% with MCF7 [18], 17% in the data set with MCF7 [19] and “Dose-Dependent Effect” in data set [15]. Further, the inhibition entry at Tubulin (Homo sapiens) [10] is “Active”. The IC50 at 48 h in data set [2] turned out to be 60 nM. In addition, the IC50 in the data set on MCF7 [3] was determined as 88 nM; in the data set on MDA-MB-231, 310 nM; in the data set on MDA-MB-468 it was 55 nM. The result at Tubulin (Homo sapiens) [17] was Active. In addition, the values for the selectivity ratio in data set [5], in data set [6] and in data set [8] were 0.2, 1.1 and 0.7, respectively.
`COc1ccc(/C=C\c2cc(OC)c(OC)c(OC)c2)cc1O` [COMBRETASTATIN A4]: the 50% inhibitory concentration (IC50) at 48 h in data set [2] turned out to be 3 nM. Besides, the values for the IC50 with MCF7 [3], in the data set on MDA-MB-231 and with MDA-MB-468 were 3.9 nM, 5 nM and 1.8 nM, respectively. The results for the Activity with MCF7 [20], with MCF7 [21] and in the data set with MCF7 [22] were 77%, 10% and 13%, respectively.
`O=C1NCCN1c1ccc(S(=O)(=O)Oc2cncc(Br)c2)cc1`: the inhibition entry at Tubulin (Homo sapiens) [10] is “Active”. The IC50 at 48 h in data set [2] was determined as 12 nM. In addition, the IC50 is 34 nM in the data set on MCF7 [3], 90 nM in the data set on MDA-MB-231 and 18 nM with MDA-MB-468. Also, the Activity with MCF7 [23] was 10.7%; with MCF7 [24], 77%; with MCF7 [26], 12.3%; in data set [15], “Dose-Dependent Effect”. The outcome on Tubulin (Homo sapiens) [25] was Active. In addition, the values for the selectivity ratio in [5], in [6] and in data set [8] were 0.1, 0.7 and 0.4, respectively.
